From ChEMBL document CHEMBL1124865, “Synthesis and biological evaluation of a series of parenteral 3'-quaternary ammonium cephalosporins” (J Med Chem, 1990)
Converted amounts (≈) assume the structure as drawn.

Columns and labels:
Format in all cases: functional
Escherichia coli [1] = assay: Antibacterial activity against Escherichia coli TEM; settings: Escherichia coli; read-out: MIC
Klebsiella pneumoniae [2] = assay: Antibacterial activity against Klebsiella pneumoniae X26; settings: Klebsiella pneumoniae; read-out: MIC
Staphylococcus aureus [3] = assay: Antibacterial activity against penicillin G susceptible Staphylococcus aureus; settings: Staphylococcus aureus; read-out: MIC
Enterobacter cloacae [4] = assay: Antibacterial activity against Enterobacter cloacae 265A; settings: Enterobacter cloacae; read-out: MIC
Serratia marcescens = assay: Antibacterial activity against Serratia marcescens SE3; settings: Serratia marcescens; read-out: MIC
Enterobacter cloacae [5] = assay: Antibacterial activity against Enterobacter cloacae EB5; settings: Enterobacter cloacae; read-out: MIC
Staphylococcus aureus [6] = assay: Antibacterial activity against penicillin G resistance Staphylococcus aureus; settings: Staphylococcus aureus; read-out: MIC
Pseudomonas aeruginosa [7] = assay: Antibacterial activity against Pseudomonas aeruginosa X528
Escherichia coli [8] = assay: Antibacterial activity against Escherichia coli EC14; settings: Escherichia coli; read-out: MIC
Streptococcus pneumoniae = assay: Antibacterial activity against Streptococcus pneumoniae; settings: Streptococcus pneumoniae; read-out: MIC
Streptococcus pyogenes = assay: Antibacterial activity against Streptococcus pyogenes; settings: Streptococcus pyogenes; read-out: MIC
Enterococcus faecium = assay: Antibacterial activity against Enterococcus faecium; settings: Enterococcus faecium; read-out: MIC
Pseudomonas aeruginosa [9] = assay: Antibacterial activity against Pseudomonas aeruginosa PS18; settings: Pseudomonas aeruginosa; read-out: MIC
Klebsiella pneumoniae [10] = assay: microbe, parasite or virus in culture; settings: Klebsiella pneumoniae; read-out: MIC
Description: Antibacterial activity against Klebsiella pneumoniae 1082E

[11] = Pseudomonas aeruginosa, read-out: MIC

SMILES | MIC (Escherichia coli [1]) [µg/mL] | MIC (Klebsiella pneumoniae [2]) [µg/mL] | MIC (Staphylococcus aureus [3]) [µg/mL] | MIC (Enterobacter cloacae [4]) [µg/mL] | MIC (Serratia marcescens) [µg/mL] | MIC (Enterobacter cloacae [5]) [µg/mL] | MIC (Staphylococcus aureus [6]) [µg/mL] | MIC (Pseudomonas aeruginosa [7]; [11]) [µg/mL] | MIC (Escherichia coli [8]) [µg/mL] | MIC (Streptococcus pneumoniae) [µg/mL] | MIC (Streptococcus pyogenes) [µg/mL] | MIC (Enterococcus faecium) [µg/mL] | MIC (Pseudomonas aeruginosa [9]) [µg/mL] | MIC (Klebsiella pneumoniae [10]) [µg/mL] | MIC (Pseudomonas aeruginosa [7]) [µg/mL]
CO/N=C(\C(=O)N[C@@H]1C(=O)N2C(C(=O)[O-])=C(C[n+]3cscc3C)CS[C@H]12)c1csc(N)n1 | 0.06 (≈ 0.121 µM) | 0.06 (≈ 0.121 µM) | 2 (≈ 4.04 µM) | 8 (≈ 16.2 µM) | 0.25 (≈ 0.505 µM) | 0.25 (≈ 0.505 µM) | 4 (≈ 8.09 µM) | 16 (≈ 32.4 µM) | 0.06 (≈ 0.121 µM) | 0.03 (≈ 0.0607 µM) | 0.03 (≈ 0.0607 µM) | 32 (≈ 64.7 µM) | 32 (≈ 64.7 µM) | 8 (≈ 16.2 µM) | –
CO/N=C(\C(=O)N[C@@H]1C(=O)N2C(C(=O)[O-])=C(C[n+]3ccc4[nH]c(-c5cccs5)nc4c3)CS[C@H]12)c1csc(N)n1 | – | 0.015 (≈ 0.0251 µM) | 2 (≈ 3.35 µM) | – | 1 (≈ 1.68 µM) | 0.5 (≈ 0.838 µM) | 8 (≈ 13.4 µM) | – | – | 0.008 (≈ 0.0134 µM) | 0.008 (≈ 0.0134 µM) | 128 (≈ 215 µM) | 128 (≈ 215 µM) | 4 (≈ 6.7 µM) | –
CO/N=C(\C(=O)N[C@@H]1C(=O)N2C(C(=O)[O-])=C(C[n+]3ccc4oc(C)nc4c3)CS[C@H]12)c1csc(N)n1 | – | 0.015 (≈ 0.0283 µM) | 1 (≈ 1.89 µM) | 8 (≈ 15.1 µM) | – | – | 8 (≈ 15.1 µM) | 4 (≈ 7.55 µM) | – | 0.015 (≈ 0.0283 µM) | 0.015 (≈ 0.0283 µM) | 128 (≈ 242 µM) | 8 (≈ 15.1 µM) | 4 (≈ 7.55 µM) | –
CO/N=C(\C(=O)N[C@@H]1C(=O)N2C(C(=O)[O-])=C(C[n+]3ccc4cnccc4c3)CS[C@H]12)c1csc(N)n1 | < 0.008 | < 0.008 | 1 (≈ 1.9 µM) | 2 (≈ 3.81 µM) | 0.03 (≈ 0.0571 µM) | 0.03 (≈ 0.0571 µM) | 1 (≈ 1.9 µM) | 2 (≈ 3.81 µM) | < 0.008 | < 0.008 | < 0.008 | 32 (≈ 60.9 µM) | 2 (≈ 3.81 µM) | 2 (≈ 3.81 µM) | –
CO/N=C(\C(=O)N[C@@H]1C(=O)N2C(C(=O)[O-])=C(C[n+]3cccc4c3CCCC4)CS[C@H]12)c1csc(N)n1 [CEFQUINOME] | 0.03 (≈ 0.0568 µM) | 0.03 (≈ 0.0568 µM) | 1 (≈ 1.89 µM) | 2 (≈ 3.78 µM) | 0.125 (≈ 0.236 µM) | 0.125 (≈ 0.236 µM) | 2 (≈ 3.78 µM) | 4 (≈ 7.57 µM) | 0.03 (≈ 0.0568 µM) | 0.015 (≈ 0.0284 µM) | < 0.008 | 128 (≈ 242 µM) | 16 (≈ 30.3 µM) | 4 (≈ 7.57 µM) | –
CO/N=C(\C(=O)N[C@@H]1C(=O)N2C(C(=O)[O-])=C(C[n+]3ccc4[nH]c(-c5ccccc5)nc4c3)CS[C@H]12)c1csc(N)n1 | – | 0.015 (≈ 0.0254 µM) | 2 (≈ 3.39 µM) | – | 1 (≈ 1.69 µM) | 0.5 (≈ 0.847 µM) | 8 (≈ 13.5 µM) | – | – | 0.008 (≈ 0.0135 µM) | 0.008 (≈ 0.0135 µM) | 128 (≈ 217 µM) | 128 (≈ 217 µM) | 2 (≈ 3.39 µM) | –
CO/N=C(\C(=O)N[C@@H]1C(=O)N2C(C(=O)[O-])=C(C[n+]3ccc4[nH]c(C)nc4c3)CS[C@H]12)c1csc(N)n1 | 0.008 (≈ 0.0151 µM) | 0.008 (≈ 0.0151 µM) | 2 (≈ 3.78 µM) | 8 (≈ 15.1 µM) | – | – | 8 (≈ 15.1 µM) | 2 (≈ 3.78 µM) | 0.008 (≈ 0.0151 µM) | 0.008 (≈ 0.0151 µM) | 0.008 (≈ 0.0151 µM) | 128 (≈ 242 µM) | 8 (≈ 15.1 µM) | 2 (≈ 3.78 µM) | –
CO/N=C(\C(=O)N[C@@H]1C(=O)N2C(C(=O)[O-])=C(C[n+]3ccc(CC(=O)NO)cc3)CS[C@H]12)c1csc(N)n1 (stereo in doubt; 19) | – | – | – | – | – | – | – | – | – | – | – | – | – | – | 2 (≈ 3.65 µM)
CO/N=C(\C(=O)N[C@@H]1C(=O)N2C(C(=O)[O-])=C(C[n+]3cccc4c(O)cccc43)CS[C@H]12)c1csc(N)n1 | 0.06 (≈ 0.111 µM) | 0.03 (≈ 0.0555 µM) | 2 (≈ 3.7 µM) | 32 (≈ 59.2 µM) | 0.5 (≈ 0.925 µM) | 0.5 (≈ 0.925 µM) | 2 (≈ 3.7 µM) | 8 (≈ 14.8 µM) | 0.03 (≈ 0.0555 µM) | 0.03 (≈ 0.0555 µM) | 0.015 (≈ 0.0277 µM) | 128 (≈ 237 µM) | 8 (≈ 14.8 µM) | 8 (≈ 14.8 µM) | –
CO/N=C(\C(=O)N[C@@H]1C(=O)N2C(C(=O)[O-])=C(C[n+]3ccc4[nH]cnc4c3)CS[C@H]12)c1csc(N)n1 | 0.008 (≈ 0.0155 µM) | 0.008 (≈ 0.0155 µM) | 2 (≈ 3.89 µM) | 8 (≈ 15.5 µM) | 0.125 (≈ 0.243 µM) | – | 2 (≈ 3.89 µM) | 2 (≈ 3.89 µM) | 0.008 (≈ 0.0155 µM) | 0.008 (≈ 0.0155 µM) | 0.008 (≈ 0.0155 µM) | – | 8 (≈ 15.5 µM) | 8 (≈ 15.5 µM) | –
CO/N=C(\C(=O)N[C@@H]1C(=O)N2C(C(=O)[O-])=C(C[n+]3ccc4nc(C(C)(C)C)sc4c3)CS[C@H]12)c1csc(N)n1 | – | – | 1 (≈ 1.7 µM) | 16 (≈ 27.2 µM) | 2 (≈ 3.4 µM) | 1 (≈ 1.7 µM) | 4 (≈ 6.81 µM) | – | – | 0.015 (≈ 0.0255 µM) | 0.015 (≈ 0.0255 µM) | 128 (≈ 218 µM) | 128 (≈ 218 µM) | 4 (≈ 6.81 µM) | –
